Experimental data from US9504745B2, “Compositions and methods for cancer treatment using targeted carbon nanotubes” (The Board of Regents of the University of Oklahoma, priority 2007, dated 2016).
Read-outs that look alike come from different tables or passages of the source.

Experiments:
[1] = system: human endothelial cells with phosphatidylserine exposed by H2O2; test: Binding of SWNT-annexin V (biotinylated) to human endothelial cells in vitro (streptavidin-HRP/OPD, A450)
Description: Purified recombinant annexin V was labeled with biotin for detection (SureLINK chromophoric biotin labeling kit; KPL, Gaithersburg, Md.) with a 40-molar excess of biotin. Biotin labeling of annexin V has been found previously not to impair the PS-binding of annexin V. The following procedure was used to measure the binding of the SWNT-annexin V (biotinylated) to human endothelial cells in vitro.
Human endothelial cells (American Type Culture Collection, Manassas, Va.) were grown as monolayers in T-75 flasks. […] The cells were fixed by adding 100 μl of phosphate buffered saline (PBS) buffer containing 0.25% glutaraldehyde and Ca^2+ (2 mM). Excess aldehyde groups were quenched by incubating with 50 mM of NH4Cl (100 μl) diluted in PBS buffer containing Ca^2+ (2 mM) for 5 minutes. The SWNT-annexin V conjugate was diluted in 0.5% BSA diluted in PBS buffer and Ca^2+ (2 mM) with an initial concentration of […]. This concentrated fusion protein solution was serially diluted 2-fold until a final concentration of 6.7 μM. SWNT-CMC-annexin V (300 μl) was added to wells in the increasing concentration of SWNT-CMC-annexin V. For each concentration of SWNT-CMC-annexin V, the experiment was done in duplicate and incubated for 2 hours. Plates were washed with 0.5% BSA diluted in PBS buffer and Ca^2+ (2 mM) (300 μl). 300 μl of streptadivin-HRP (horseradish peroxidase) (2 μg/ml) was added and incubated for 1 hour at room temperature. The plate was then washed with PBS (300 μl), and the chromogenic substrate O-phenylenediamine (OPD, 300 μl) was added and incubated for 30 minutes. 100 μl of the supernatant was then transferred to 96-well plates, and absorbance was measured at 450 nm (Biotek KC4 microtiter plate reader) using a blank that omits the addition of SWNT-annexin V described above.
The data obtained above for the binding of SWNT-CMC-annexin V to human endothelial cells in vitro was used in the determination of the dissociation constant (Kd). […]

human endothelial cells [2] = system: human endothelial cells
Description: The effects of irradiation of SWNTs bound to endothelial cells were tested in vitro. […] The following procedure was used to treat human endothelial cells in vitro with SWNT-CMC-annexin V bound.
Cells were grown using F12K media containing 10% FBS until they reach 85% confluence in T-75 flasks, and the cells were then counted using a hemocytometer. Cancer cells (5×10^4) were transferred to 24 well plates (6 plates, with 3 wells per plate containing cells) and grown until 85% confluence was reached. Two extensive dialyses were performed (with a total dilution factor of 1,000,000×) in order to remove the sodium azide from the SWNT-CMC-biotinylated annexin V. The first dialysis for 3 hours (1000×) was performed using modification buffer (100 mM sodium phosphate, 150 mM NaCl, pH 7.2-7.4). The buffer was changed and the dialysis continued for 4 more hours. 1 ml of the suspension of SWNT-CMC-biotinylated annexin V was used. PS was exposed on the surface of cells by the addition of hydrogen peroxide (1 mM), and the cells were treated with 300 μl binding buffer containing the F12K media containing 1 mM of H2O2 for 1 hour at 37° C. The plates were washed 4× with F12K media (containing 10% FBS) (300 μl), and SWNT-CMC-biotinylated-annexin V (300 μl) was added to wells at a concentration of 20 nM. In order to obtain this concentration, the protein was diluted using F12K media (containing 10% FBS plus 2 mM Ca^2+). For each plate, the experiment was done in triplets. The plates were incubated for 2 hours in the incubator and then washed 4× with F12K media (containing 10% FBS plus 2 mM Ca^2+) (300 μl). […] Cell viability was evaluated one hour later by adding Alamar Blue in an amount equal to 10% of culture media (30 μl of Alamar Blue+300 μl of media) volume to the wells. […] Fluorescence was then measured at 590 nm (using excitation at 530 nm). […] The cells that were attached were treated with trypsin, and the cells were combined in the 96-well plates and counted in a hemocytometer. […]

human endothelial cells [3] = test: Laser treatment of human endothelial cells with SWNT-annexin V complex, SDS method (Alamar Blue); type: cell-based
Description: SWNTs with annexin V conjugated using the Fmoc-NH-PEG-NHS linker added via the SDS method were used in a laser test with endothelial cells. […] The endothelial cells were transferred to 24 well plates (5×10^4 cells per well) and grown until 100% confluence was reached. A separate plate was used for each different treatment. The media was warmed up in the incubator at 37° C., and the media was removed from the wells. […] For each plate, the experiment was done with two or three wells.
300 μl of F12K media was added with 2 mM Ca^2+ to the wells, and the laser treatment was performed on each well using a beam with a diameter of 1.8 cm, power level of 3.9 W, and beam time of 130 s (energy density=199 J/cm^2).
Then, SWNT-annexing V was added to the wells as described above.

human endothelial cells [4] = test: Laser irradiation of human endothelial cells with SWNT-Fmoc-NH-PEG-NHS-annexin V bound (Alamar Blue); type: cell-based; conditions: 20 nM protein
Description: The procedure described above was applied using the human annexin V protein but any Annexin described herein could be used. […] The media was warmed up in the incubator at 37° C. and then removed from the wells. […] For each plate, the experiment was performed in triplets.
The samples (300 μl/well) were then transferred to a 96-microtiter plate, and fluorescence was measured at 590 nm (using excitation at 530 nm).

[5] = system: non-small-cell lung cancer (NSCLC) with pleural spread; conditions: 22 patients, photosensitizer 24 hours before surgery, 603 nm light; cited from earlier work
[6] = patients; cited from earlier work
4T1 mouse mammary tumors = test: In vivo laser treatment of implanted 4T1 mammary tumors in mice with SWNT-annexin V complex; parameters: species or system BALB/cJ mice
Description: In another embodiment, female BALB/cJ mice, age 6 weeks (received from Jackson Laboratory (Bar Harbor, Me.) were treated. Animal experimentation was not started until the animals were 9 weeks old. The animals were kept in a dedicated room in the animal facility located in the Zoology building of the University of Oklahoma. All of the protocols used involving animals were previously submitted and approved by the Institutional Animal Care and Use Committee (IACUC). All of the animals were placed in appropriate cages with food and water in an adequate environment. Each cage hosted five animals. The anesthetics used were ketamine (100 mg/ml) and xylazine (20 mg/ml). In order to prepare the anesthetic solution, 1 ml of ketamine (100 mg/ml) was mixed with 0.5 ml of xylazine (20 mg/ml) and 8.5 ml of sterile saline solution (0.9% NaCl). The dosage used for each animal was equal to 0.1 ml of the stock solution per 10 grams of body weight. Prior to anesthetizing the animals, each of them was weighted using a scale.
In order to evaluate the ability to eradicate the tumors using this therapy in vivo, it was necessary to implant a suitable cancer cell line in the animals. The 4T1 cell line was chosen for this study, since these cells have the ability to replicate at a fast rate and also develop visible tumors in BALB/c mice in a matter of less than one week after implantation. […] After having the eight T-75 flasks growing for 2 days, there are plenty of cells to inject the animals, for each test. The cells are then lifted from the flasks using ACCUTASE® solution (Innovative Cell Technologies, San Diego, Calif.), using the same procedure as for human endothelial cells. […] Knowing that it is necessary to inject 5×10^5 cells/animal (volume=100 μl), the total number of cells was determined. The cell concentration in the sample was evaluated using the standard cell counting procedure. […]
After irradiation, the tumor volumes were monitored every two days. […] The length and width of the tumors was measured using a digital caliper. The tumor volumes were determined by applying the following formula: […]

[7] = human endothelial cells, FIG. 1

SWNT-CMC-annexin V: Recombinant annexin V (biotinylated) conjugated via EDC/NHS to carboxymethylcellulose (30 kDa) adsorbed to single-walled carbon nanotubes
Kd ([1]; binding to human endothelial cells in vitro, PS exposed with 1 mM H2O2, fit with Prism 5, read-out: dissociation constant (Kd)): 2.9 nM
binding to the cells [1, 7]: binding to the cells increased as the annexin V-SWNT complex concentration increased
concentration above which transition from negligible binding to measurable binding occurred [1, 7]: > 1000 pM
difference in RFU between cells with nanotubes and cells without nanotubes (human endothelial cells [2]): no significant difference
cell number at 4 W/cm^2 relative to 0 W/cm^2 (human endothelial cells [2]; 20 nM complex bound, 980 nm, 20 J/cm^2, hemocytometer): 50%
difference in RFU between cells with nanotubes and cells without nanotubes (human endothelial cells [2]; power level of 2 W/cm^2, 980 nm, 20 J/cm^2): no significant difference

SWNT-annexin V: SWNTs with annexin V conjugated using the Fmoc-NH-PEG-NHS linker added via the SDS method
cell viability (human endothelial cells [3]; 0.89 mg/L SWNT, 299 J/cm^2, hydrogen peroxide, versus 199 J/cm^2): again lower
reduction of cell viability compared with untreated cells (human endothelial cells [3]; 0.89 mg/L SWNTs, laser energy 199 J/cm^2, hydrogen peroxide, 100% confluent cells): 60%
effect on cell viability (human endothelial cells [3]; laser at 199 J/cm^2, 0.06-0.89 mg/L SWNT, no H2O2, significant (p<0.05) at 0.89 mg/L): concentration-dependent effect on cell viability
effect on the cells (Alamar Blue) (human endothelial cells [3]; without laser (plate 2, 0.06 mg/L SWNT)): no effect on the cells

SWNT-Fmoc-NH-PEG-NHS-annexin V: Human annexin V attached via Fmoc-NH-PEG-NHS linker adsorbed to SWNTs dispersed with sodium cholate
effect on the cells (Alamar Blue) (human endothelial cells [4]; with laser 980 nm 1.50 W/cm^2 for 130 seconds (195 J/cm^2), H2O2, 85% confluence): killing virtually all of the cells
effect on the cells (Alamar Blue) (human endothelial cells [4]; without laser): no effect on the cells

porfimer sodium [porfirmer sodium]
median survival [5]: 21 months
side effect [6]: prolonged skin photosensitivity

O=P1(N(CCCl)CCCl)NCCCO1 (centres unmarked) [CY, cyclophosphamide]
effect of addition of CY on tumor volume reduction (4T1 mouse mammary tumors; CY 50 mg/kg i.p. added to SWNTs+Laser): did not translate into a significant difference
effect of CY on metastatic nodules compared to laser+SWNT treatment alone (4T1 mouse mammary tumors; lungs): did not lead to fewer metastatic nodules
effect of addition of CY on survival (4T1 mouse mammary tumors; treatment group that received CY compared to the one that did not): increased survival
